According to PMC7486443, “Generation of Phenothiazine with Potent Anti-TLK1 Activity for Prostate Cancer Therapy” (iScience, 2020):

Columns and labels:
Test in all cases: biochemical
Parameters in all cases: DiscoverX KINOMEscan scanMAX competition binding panel, single concentration, percent of control; remaining binding: dose or concentration left out as unconfirmed
Conditions in all cases: KINOMEscan binding, percent of control; read-out: Table S4_SCANMAX REPORT - related to Fig. 1 / Percent Control
MET(M1250T) = MET(M1250T) (Homo sapiens, UniProt P08581, M1250T)
RIOK2 = RIOK2 (Homo sapiens, UniProt Q9BVS4)
RET(V804L) = RET(V804L) (Homo sapiens, UniProt P07949, V804L)
GRK7 = GRK7 (Homo sapiens, UniProt Q8WTQ7)
CDK3 = CDK3 (Homo sapiens, UniProt Q00526)
MAST1 = MAST1 (Homo sapiens, UniProt Q9Y2H9)
SGK2 = SGK2 (Homo sapiens, UniProt Q9HBY8)
[1] = target: T1, JAK2(JH1domain-catalytic) (Homo sapiens, UniProt O60674)
T1 construct: JH1domain-catalytic

CDK4 = CDK4 (Homo sapiens, UniProt P11802)
TAOK1 = TAOK1 (Homo sapiens, UniProt Q7L7X3)
INSRR = INSRR (Homo sapiens, UniProt P14616)
CDK4-cyclinD1 = target: T2, CDK4-cyclinD1 (Homo sapiens, UniProt P11802)
T2 construct: cyclinD1

NEK2 = NEK2 (Homo sapiens, UniProt P51955)
[2] = target: T3, JAK1(JH1domain-catalytic) (Homo sapiens, UniProt P23458)
T3 construct: JH1domain-catalytic

CDKL2 = CDKL2 (Homo sapiens, UniProt Q92772)
MARK4 = MARK4 (Homo sapiens, UniProt Q96L34)
PIK3C2G = PIK3C2G (Homo sapiens, UniProt O75747)
[3] = target: T4, RPS6KA4(Kin.Dom.1-N-terminal) (Homo sapiens, UniProt O75676)
T4 construct: Kin.Dom.1-N-terminal

PIK3C2G, sequence (O75747 whole entry): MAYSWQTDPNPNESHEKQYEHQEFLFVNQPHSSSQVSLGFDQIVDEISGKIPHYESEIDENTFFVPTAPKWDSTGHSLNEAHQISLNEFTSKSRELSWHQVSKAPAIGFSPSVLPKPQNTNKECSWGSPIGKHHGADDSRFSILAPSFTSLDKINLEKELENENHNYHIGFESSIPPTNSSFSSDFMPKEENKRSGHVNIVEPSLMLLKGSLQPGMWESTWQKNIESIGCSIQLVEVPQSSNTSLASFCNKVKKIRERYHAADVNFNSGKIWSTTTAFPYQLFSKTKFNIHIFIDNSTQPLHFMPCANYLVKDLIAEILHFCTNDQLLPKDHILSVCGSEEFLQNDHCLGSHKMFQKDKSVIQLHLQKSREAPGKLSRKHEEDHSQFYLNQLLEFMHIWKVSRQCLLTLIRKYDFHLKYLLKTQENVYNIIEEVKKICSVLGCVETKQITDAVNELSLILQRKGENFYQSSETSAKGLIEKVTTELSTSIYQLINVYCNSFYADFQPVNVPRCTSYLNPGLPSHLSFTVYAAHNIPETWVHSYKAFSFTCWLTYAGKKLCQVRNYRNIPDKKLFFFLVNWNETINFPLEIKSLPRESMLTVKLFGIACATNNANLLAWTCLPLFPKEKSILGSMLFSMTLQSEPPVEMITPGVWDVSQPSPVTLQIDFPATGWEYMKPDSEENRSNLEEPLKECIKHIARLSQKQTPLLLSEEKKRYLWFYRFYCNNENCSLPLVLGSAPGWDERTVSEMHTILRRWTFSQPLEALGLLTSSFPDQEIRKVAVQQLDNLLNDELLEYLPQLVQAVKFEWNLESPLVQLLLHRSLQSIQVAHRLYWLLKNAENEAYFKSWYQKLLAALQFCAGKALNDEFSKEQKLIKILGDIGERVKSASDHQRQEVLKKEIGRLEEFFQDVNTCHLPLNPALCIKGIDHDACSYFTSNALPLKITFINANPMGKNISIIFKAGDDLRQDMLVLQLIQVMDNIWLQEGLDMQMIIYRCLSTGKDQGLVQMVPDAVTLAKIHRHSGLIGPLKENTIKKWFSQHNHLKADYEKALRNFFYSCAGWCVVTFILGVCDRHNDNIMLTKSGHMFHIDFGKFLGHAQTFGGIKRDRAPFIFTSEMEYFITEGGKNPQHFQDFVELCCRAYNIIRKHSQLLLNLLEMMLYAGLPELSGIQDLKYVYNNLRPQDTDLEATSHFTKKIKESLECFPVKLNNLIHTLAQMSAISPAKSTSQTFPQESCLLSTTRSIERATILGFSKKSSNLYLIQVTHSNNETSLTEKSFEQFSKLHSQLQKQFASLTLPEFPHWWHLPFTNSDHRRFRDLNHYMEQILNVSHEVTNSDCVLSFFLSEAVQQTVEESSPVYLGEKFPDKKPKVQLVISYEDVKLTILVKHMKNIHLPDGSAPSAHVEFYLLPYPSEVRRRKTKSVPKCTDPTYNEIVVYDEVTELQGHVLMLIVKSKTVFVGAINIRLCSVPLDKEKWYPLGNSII
T1 sequence (O60674 whole entry): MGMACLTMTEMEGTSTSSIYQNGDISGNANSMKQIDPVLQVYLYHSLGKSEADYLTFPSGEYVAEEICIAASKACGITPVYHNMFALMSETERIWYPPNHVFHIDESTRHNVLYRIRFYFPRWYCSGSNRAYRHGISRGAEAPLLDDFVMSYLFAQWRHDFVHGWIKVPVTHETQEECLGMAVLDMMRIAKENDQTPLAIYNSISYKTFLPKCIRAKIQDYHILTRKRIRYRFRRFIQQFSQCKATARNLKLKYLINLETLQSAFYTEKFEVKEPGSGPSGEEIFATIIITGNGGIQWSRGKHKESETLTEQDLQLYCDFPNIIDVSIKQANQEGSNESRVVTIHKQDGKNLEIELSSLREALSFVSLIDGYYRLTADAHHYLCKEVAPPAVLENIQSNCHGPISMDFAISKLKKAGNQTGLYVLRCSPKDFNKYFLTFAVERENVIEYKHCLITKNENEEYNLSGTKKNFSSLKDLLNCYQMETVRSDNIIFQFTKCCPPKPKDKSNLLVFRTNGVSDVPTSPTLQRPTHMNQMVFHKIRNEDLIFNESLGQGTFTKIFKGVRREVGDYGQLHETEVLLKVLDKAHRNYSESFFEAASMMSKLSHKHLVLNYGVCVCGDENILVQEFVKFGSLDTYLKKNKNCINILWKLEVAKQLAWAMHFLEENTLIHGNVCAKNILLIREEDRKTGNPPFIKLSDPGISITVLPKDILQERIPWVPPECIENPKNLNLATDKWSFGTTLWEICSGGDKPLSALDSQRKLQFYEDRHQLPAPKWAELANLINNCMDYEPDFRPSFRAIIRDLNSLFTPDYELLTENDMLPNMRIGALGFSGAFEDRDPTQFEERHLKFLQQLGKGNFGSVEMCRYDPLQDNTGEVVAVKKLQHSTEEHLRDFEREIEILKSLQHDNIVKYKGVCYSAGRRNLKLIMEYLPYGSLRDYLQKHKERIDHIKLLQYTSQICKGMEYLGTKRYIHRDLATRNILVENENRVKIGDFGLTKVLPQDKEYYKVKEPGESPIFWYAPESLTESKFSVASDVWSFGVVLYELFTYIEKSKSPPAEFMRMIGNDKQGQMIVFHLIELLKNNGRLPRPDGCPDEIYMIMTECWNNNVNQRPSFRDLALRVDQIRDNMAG
RET(V804L), sequence (P07949 whole entry V804L): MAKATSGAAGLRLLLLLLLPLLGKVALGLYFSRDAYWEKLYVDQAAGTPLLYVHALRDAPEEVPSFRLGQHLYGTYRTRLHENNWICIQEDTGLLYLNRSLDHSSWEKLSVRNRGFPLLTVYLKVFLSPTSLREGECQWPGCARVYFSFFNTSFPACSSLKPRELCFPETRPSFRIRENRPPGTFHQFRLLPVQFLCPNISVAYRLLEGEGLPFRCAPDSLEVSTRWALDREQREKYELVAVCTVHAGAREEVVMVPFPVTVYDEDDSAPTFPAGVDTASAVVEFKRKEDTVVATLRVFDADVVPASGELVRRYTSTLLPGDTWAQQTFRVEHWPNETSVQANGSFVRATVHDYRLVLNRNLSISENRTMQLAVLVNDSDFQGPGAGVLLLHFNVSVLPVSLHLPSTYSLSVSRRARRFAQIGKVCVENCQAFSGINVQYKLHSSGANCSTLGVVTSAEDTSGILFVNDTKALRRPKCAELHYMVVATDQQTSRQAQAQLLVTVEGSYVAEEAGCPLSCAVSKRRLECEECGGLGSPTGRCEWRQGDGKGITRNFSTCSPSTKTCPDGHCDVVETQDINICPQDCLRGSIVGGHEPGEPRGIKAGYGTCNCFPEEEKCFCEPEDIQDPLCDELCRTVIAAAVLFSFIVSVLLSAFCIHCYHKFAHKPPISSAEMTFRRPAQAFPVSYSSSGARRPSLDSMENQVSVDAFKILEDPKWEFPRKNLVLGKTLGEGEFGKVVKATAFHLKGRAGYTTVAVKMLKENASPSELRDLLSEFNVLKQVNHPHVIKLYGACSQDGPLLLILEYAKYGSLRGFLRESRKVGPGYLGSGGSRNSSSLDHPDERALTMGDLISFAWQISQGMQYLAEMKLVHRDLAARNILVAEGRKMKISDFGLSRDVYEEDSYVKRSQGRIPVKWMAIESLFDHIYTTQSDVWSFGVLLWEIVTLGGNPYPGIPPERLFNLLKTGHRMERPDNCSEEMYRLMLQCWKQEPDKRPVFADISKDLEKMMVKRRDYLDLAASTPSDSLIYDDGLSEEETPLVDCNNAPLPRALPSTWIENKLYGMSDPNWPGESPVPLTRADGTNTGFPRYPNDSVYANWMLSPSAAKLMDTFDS
MET(M1250T), sequence (P08581 whole entry M1250T): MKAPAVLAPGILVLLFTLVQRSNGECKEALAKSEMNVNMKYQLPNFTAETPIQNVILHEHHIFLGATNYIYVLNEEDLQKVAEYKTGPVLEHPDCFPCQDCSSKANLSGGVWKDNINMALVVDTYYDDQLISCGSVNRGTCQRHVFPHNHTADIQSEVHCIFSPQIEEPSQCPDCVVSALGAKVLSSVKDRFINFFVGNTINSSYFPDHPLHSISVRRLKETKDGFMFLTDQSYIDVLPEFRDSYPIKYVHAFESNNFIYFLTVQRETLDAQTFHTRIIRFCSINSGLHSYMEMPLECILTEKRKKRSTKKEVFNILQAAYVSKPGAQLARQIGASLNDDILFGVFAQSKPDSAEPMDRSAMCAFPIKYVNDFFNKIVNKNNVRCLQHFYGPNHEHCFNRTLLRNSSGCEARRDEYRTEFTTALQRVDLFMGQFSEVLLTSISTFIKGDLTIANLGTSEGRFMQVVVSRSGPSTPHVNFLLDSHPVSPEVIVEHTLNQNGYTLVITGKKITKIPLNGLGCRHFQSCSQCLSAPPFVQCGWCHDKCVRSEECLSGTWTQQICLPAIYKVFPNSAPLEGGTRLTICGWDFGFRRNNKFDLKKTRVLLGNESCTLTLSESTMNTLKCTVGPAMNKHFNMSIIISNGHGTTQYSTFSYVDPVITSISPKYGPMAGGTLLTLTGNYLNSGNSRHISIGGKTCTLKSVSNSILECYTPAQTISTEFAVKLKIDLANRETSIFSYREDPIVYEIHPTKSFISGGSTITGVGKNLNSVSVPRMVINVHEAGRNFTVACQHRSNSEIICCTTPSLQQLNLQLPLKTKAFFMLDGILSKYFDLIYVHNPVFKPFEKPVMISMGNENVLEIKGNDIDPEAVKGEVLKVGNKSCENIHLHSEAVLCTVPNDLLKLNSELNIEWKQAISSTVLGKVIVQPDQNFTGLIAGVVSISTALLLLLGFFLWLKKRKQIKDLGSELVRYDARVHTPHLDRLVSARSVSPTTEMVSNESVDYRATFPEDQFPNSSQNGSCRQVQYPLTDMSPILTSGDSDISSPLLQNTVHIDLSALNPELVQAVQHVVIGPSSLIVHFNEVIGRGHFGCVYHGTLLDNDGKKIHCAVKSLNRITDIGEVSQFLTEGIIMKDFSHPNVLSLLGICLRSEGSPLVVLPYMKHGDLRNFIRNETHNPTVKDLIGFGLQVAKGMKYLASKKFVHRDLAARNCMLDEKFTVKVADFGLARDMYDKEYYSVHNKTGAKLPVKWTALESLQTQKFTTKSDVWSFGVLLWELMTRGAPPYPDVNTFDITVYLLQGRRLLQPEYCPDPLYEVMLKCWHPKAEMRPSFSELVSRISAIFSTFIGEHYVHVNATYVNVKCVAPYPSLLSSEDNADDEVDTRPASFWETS

`c1ccc2c(c1)Sc1ccccc1N2CCN1CCOCC1` [J54] showed a remaining binding (MET(M1250T)) of 67%, a remaining binding (RIOK2) of 100% and a remaining binding (RET(V804L)) of 88%. For the same compound, the remaining binding (GRK7) was 100%, the remaining binding (CDK3) was 89% and the remaining binding (MAST1) was 100%. For the same compound, the remaining binding (SGK2) was 90%, the remaining binding [1] was 95% and the remaining binding (CDK4) was 100%. It also gave a remaining binding (TAOK1) of 100%, a remaining binding (INSRR) of 85% and a remaining binding (CDK4-cyclinD1) of 36%. For the same compound, the remaining binding (NEK2) was 100%, the remaining binding [2] was 100% and the remaining binding (CDKL2) was 100%. The remaining binding (MARK4) was 100%, the remaining binding (PIK3C2G) was 74% and the remaining binding [3] was 75%.
